Experimental data as given in patent US11299488B2, “Five membered-aminoheterocycle and 5,6-or 6,6-membered bicyclic aminoheterocyclic inhibitors of rock for the treatment of heart failure” (BRISTOL-MYERS SQUIBB COMPANY, priority 2017, dated 2022).

Biological target: ROCK2 (Homo sapiens (Human), UniProt O75116)
Test: ROCK assay (Caliper LABCHIP peptide phosphorylation, 5 μM ATP)
Type: biochemical
Protocol: The effectiveness of compounds of the present invention as ROCK inhibitors can be determined in a 30 μL assay containing 20 mM HEPES, pH 7.5, 20 mM MgCl2, 0.015% Brij-35, 4 mM DTT, 5 μM ATP and 1.5 μM peptide substrate (FITC-AHA-AKRRRLSSLRA-OH) (SEQ ID No. 1). Compounds were dissolved in DMSO so that the final concentration of DMSO was <2%, and the reaction was initiated with Rho kinase variants. After incubation, the reaction was terminated by the addition of EDTA and the phosphorylated and non-phosphorylated peptides separated using a LABCHIP® 3000 Reader (Caliper Life Sciences). […] Compounds were tested in dose-response format, and the inhibition of kinase activity was calculated at each concentration of compound. The inhibition data were fit using a curve-fitting program to determine the IC50; i.e., the concentration of compound required to inhibit 50% of kinase activity. Representative Examples were tested in the ROCK assay described above and found having ROCK inhibitory activity. A range of ROCK inhibitory activity (IC50 values) of ≤50 μM (50000 nM) was observed. Table A below lists the ROCK IC50 values measured for the following examples.

Sequence of ROCK2 (O75116 whole entry, species assumed): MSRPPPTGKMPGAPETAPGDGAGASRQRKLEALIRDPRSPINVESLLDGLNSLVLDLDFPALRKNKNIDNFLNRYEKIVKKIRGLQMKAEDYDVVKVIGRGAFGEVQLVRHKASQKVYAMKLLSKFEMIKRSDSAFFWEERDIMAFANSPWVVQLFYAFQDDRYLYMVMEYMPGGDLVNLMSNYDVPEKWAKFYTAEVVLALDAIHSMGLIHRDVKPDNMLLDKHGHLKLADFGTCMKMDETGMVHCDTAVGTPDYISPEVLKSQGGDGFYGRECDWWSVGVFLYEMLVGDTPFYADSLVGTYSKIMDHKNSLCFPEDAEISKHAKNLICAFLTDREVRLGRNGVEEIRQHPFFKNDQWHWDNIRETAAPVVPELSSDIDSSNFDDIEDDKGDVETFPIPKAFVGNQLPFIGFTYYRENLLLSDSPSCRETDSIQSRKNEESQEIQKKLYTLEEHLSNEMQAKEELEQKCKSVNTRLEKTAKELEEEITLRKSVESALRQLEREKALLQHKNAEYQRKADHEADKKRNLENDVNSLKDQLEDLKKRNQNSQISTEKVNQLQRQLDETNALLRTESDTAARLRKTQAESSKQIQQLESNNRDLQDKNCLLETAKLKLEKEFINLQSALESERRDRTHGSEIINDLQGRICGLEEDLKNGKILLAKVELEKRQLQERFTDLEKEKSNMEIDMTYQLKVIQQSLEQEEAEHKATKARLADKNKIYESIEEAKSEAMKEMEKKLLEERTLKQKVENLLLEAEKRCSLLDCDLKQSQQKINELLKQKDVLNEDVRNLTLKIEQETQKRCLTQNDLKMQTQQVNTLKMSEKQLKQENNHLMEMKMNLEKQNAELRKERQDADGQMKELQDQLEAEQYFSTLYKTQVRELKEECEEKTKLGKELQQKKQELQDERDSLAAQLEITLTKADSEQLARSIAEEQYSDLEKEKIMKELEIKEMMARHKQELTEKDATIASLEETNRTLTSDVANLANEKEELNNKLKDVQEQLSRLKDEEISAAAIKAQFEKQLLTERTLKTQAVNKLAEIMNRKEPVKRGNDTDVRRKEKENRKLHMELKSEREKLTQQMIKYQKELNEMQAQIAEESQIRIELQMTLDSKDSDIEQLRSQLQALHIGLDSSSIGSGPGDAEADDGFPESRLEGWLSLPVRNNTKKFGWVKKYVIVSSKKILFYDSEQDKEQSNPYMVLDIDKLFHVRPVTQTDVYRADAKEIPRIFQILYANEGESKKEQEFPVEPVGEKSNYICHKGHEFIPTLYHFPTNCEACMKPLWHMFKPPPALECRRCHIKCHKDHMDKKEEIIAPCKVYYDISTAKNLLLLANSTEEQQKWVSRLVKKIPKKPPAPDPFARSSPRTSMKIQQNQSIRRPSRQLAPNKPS

| IC50 [nM] | Molecule |
| --- | --- |
| 537 | NC(=O)c1cccnc1O[C@H]1C[C@@]2(C[C@H](Nc3nnc(-c4ccc(F)cc4F)o3)C2)C1 (stereo partly drawn) [Example 20, 2-(((2S,4s,6S)-6-((5-(2,4-difluorophenyl)-1,3,4-oxadiazol-2-yl)amino)spiro[3.3]heptan-2-yl)oxy)nicotinamide] |
| 73 | NC(=O)c1cccnc1O[C@H]1C[C@@]2(C[C@H](Nc3cnc4cc(F)ccc4n3)C2)C1 (stereo partly drawn) [Example 21, 2-(((2S,4s,6S)-6-((6-fluoroquinoxalin-2-yl)amino)spiro[3.3]heptan-2-yl)oxy)nicotinamide] |
| 148 | NC(=O)c1cccnc1O[C@H]1C[C@@]2(C[C@H](Nc3cnc4ccc(F)cc4n3)C2)C1 (stereo partly drawn) [Example 22, 2-(((2S,4s,6S)-6-((7-fluoro-quinoxalin-2-yl)amino)spiro[3.3]heptan-2-yl)oxy) nicotinamide] |
| 62 | COc1ccc2ncnc(N[C@H]3C[C@]4(C3)C[C@H](Oc3ncccc3C(N)=O)C4)c2c1 (stereo partly shown) [Example 23] |
| 103 | NC(=O)c1cccnc1O[C@H]1C[C@@]2(C[C@H](Nc3ncnc4cc(Cl)ccc34)C2)C1 (stereo partly drawn) [Example 24, 2-(((2S,4s,6S)-6-((7-chloro-quinazolin-4-yl)amino)spiro[3.3]heptan-2-yl)oxy) nicotinamide] |
| 165 | COc1ccc2c(N[C@H]3C[C@]4(C3)C[C@H](Oc3ncccc3C(N)=O)C4)ncnc2c1 (stereo partly drawn) [Example 25, 2-(((2S,4s,6S)-6-((7-methoxy-quinazolin-4-yl)amino)spiro[3.3]heptan-2-yl)oxy) nicotinamide] |
| 128 | NC(=O)c1cccnc1O[C@H]1C[C@@]2(C[C@H](Nc3ncnc4ccc(F)cc34)C2)C1 (stereo partly drawn) [Example 26, 2-(((2S,4s,6S)-6-((6-fluoro-quinazolin-4-yl)amino)spiro[3.3]heptan-2-yl)oxy) nicotinamide] |
| 258 | NC(=O)c1cccnc1O[C@H]1C[C@@]2(C[C@H](Nc3ncc4ccccc4n3)C2)C1 (stereo partly drawn) [Example 28, 2-(((2S,4s, 6S)-6-(quinazolin-2-ylamino)spiro [3.3]heptan-2-yl)oxy) nicotinamide] |
| 141 | NC(=O)c1cccnc1O[C@H]1C[C@@]2(C[C@H](Nc3ncc4cc(F)ccc4n3)C2)C1 (stereo partly drawn) [Example 29, 2-(((2S,4s,6S)-6-((6-fluoro-quinazolin-2-yl)amino)spiro [3.3]heptan-2-yl)oxy) nicotinamide] |
| 235 | NC(=O)c1cccnc1O[C@H]1C[C@@]2(C[C@H](Nc3ncc4ccc(F)cc4n3)C2)C1 (stereo partly drawn) [Example 30, 2-(((2S,4s,6S)-6-((7-fluoro-quinazolin-2-yl)amino)spiro[3.3]heptan-2-yl)oxy) nicotinamide] |
| 47 | Cc1ccc2c(N[C@H]3C[C@]4(C3)C[C@H](Oc3ncccc3C(N)=O)C4)nccc2c1 (stereo partly drawn) [Example 31, 2-(((2S,4s, 6S)-6-((6-methyl-isoquinolin-1-yl)amino)spiro [3.3]heptan-2-yl)oxy) nicotinamide] |
| 68 | COc1ccc2c(N[C@H]3C[C@]4(C3)C[C@H](Oc3ncccc3C(N)=O)C4)nc(OC)cc2c1 (stereo partly shown) [Example 32] |
| 17 | COc1ccc2c(N[C@H]3C[C@]4(C3)C[C@H](Oc3ncccc3C(N)=O)C4)nccc2c1 (stereo partly drawn) [Example 33, 2-(((2S,4s,6S)-6-((6-methoxy-isoquinolin-1-yl)amino)spiro [3.3]heptan-2-yl)oxy) nicotinamide] |
| 105 | N#Cc1ccc(-c2cnc(N[C@H]3CC4(C3)C[C@H](Oc3ncccc3C(N)=O)C4)nc2)cc1 (stereo partly drawn) [Example 34, 2-(((2S,4s,6S)-6-((5-(4-cyanophenyl)pyrimidin-2-yl)amino)spiro[3.3]heptan-2-yl)oxy)nicotinamide] |
| 192 | NC(=O)c1cccnc1OC1CC2(CC(Nc3ncc4cc(Br)ccc4n3)C2)C1 [Example 35, 2-(((2S,4s,6S)-6-((6-bromo-quinazolin-2-yl)amino)spiro[3.3]heptan-2-yl)oxy) nicotinamide] |
| 202 | [H][C@]1(Oc2ncccc2C(N)=O)C[C@]2(C[C@@H](Nc3nccc(N4CCC(F)(F)CC4)n3)C2)C1 (stereo partly drawn) [Example 37, 2-(((2S,4s,6S)-6-((4-(4,4-difluoro-piperidin-1-yl)pyrimidin-2-yl)amino)spiro[3.3]heptan-2-yl)oxy) nicotinamide] |
| 388 | [H][C@]1(Oc2ncccc2C(N)=O)C[C@]2(C[C@@H](Nc3nccc(N4CCC(F)(F)C4)n3)C2)C1 (stereo partly drawn) [Example 38, 2-(((2S,4s,6S)-6-((4-(3,3-difluoro-pyrrolidin-1-yl)pyrimidin-2-yl)amino)spiro[3.3]heptan-2-yl)oxy) nicotinamide] |
| 983 | [H][C@]1(Oc2ncccc2C(N)=O)C[C@]2(C[C@@H](Nc3nccc(N4CC(F)(F)C4)n3)C2)C1 (stereo partly drawn) [Example 39, 2-(((2S,4s,6S)-6-((4-(3,3-difluoro-azetidin-1-yl)pyrimidin-2-yl)amino)spiro[3.3]heptan-2-yl)oxy) nicotinamide] |
| 378 | [H][C@]1(Oc2ncccc2C(N)=O)C[C@]2(C[C@@H](Nc3nccc(N4CCC(F)CC4)n3)C2)C1 (stereo partly drawn) [Example 40, 2-(((2S,4s,6S)-6-((4-(4-fluoro-piperidin-1-yl)pyrimidin-2-yl)amino)spiro [3.3]heptan-2-yl)oxy) nicotinamide] |

Further lines, the molecule ahead of its results:

| Molecule | IC50 [nM] |
| --- | --- |
| 2-(((2S,4r,6S)- 6-((2- ((S)-3- fluoro- pyrrolidin- 1- yl) pyrimidin-4- yl)amino) spiro[3.3] heptan-2- yl)oxy) nicotinamide [Example 69] | 1560 |
| NC(=O)c1cccnc1O[C@H]1CC2(C[C@H](Nc3nc4cc(F)c(Br)cc4s3)C2)C1 (stereo partly drawn) [Example 1, 2-(((2S,4s,6S)-6-((6-bromo-5-fluorobenzo[d]thiazol-2-yl)amino)spiro[3.3]heptan-2-yl)oxy)nicotinamide] | 547 |
| NC(=O)c1cccnc1O[C@H]1C[C@@]2(C[C@H](Nc3nc4ccc(F)cc4s3)C2)C1 (stereo partly drawn) [Example 2, 2-(((2S,4s,6S)-6-((6-fluorobenzo[d]thiazol-2-yl)amino)spiro[3.3]heptan-2-yl)oxy)nicotinamide] | 156 |
| NC(=O)c1cccnc1O[C@H]1C[C@@]2(C[C@H](Nc3nc4ccc(Cl)cc4s3)C2)C1 (stereo partly drawn) [Example 3, 2-(((2S,4s,6S)-6-((6-chlorobenzo[d]thiazol-2-yl)amino)spiro[3.3]heptan-2-yl)oxy)nicotinamide] | 268 |
| NC(=O)c1cccnc1O[C@H]1C[C@@]2(C[C@H](Nc3nc4c(F)cccc4o3)C2)C1 (stereo partly drawn) [Example 6, 2-(((2S,4s,6S)-6-((4-fluorobenzo[d]oxazol-2-yl)amino)spiro[3.3]heptan-2-yl)oxy)nicotinamide] | 110 |
| COc1ccc(-c2csc(N[C@H]3C[C@]4(C3)C[C@H](Oc3ncccc3C(N)=O)C4)n2)cc1 (stereo partly drawn) [Example 8, 2-(((2S,4s,6S)-6-((4-(4-methoxyphenyl)thiazol-2-yl)amino)spiro[3.3]heptan-2-yl)oxy)nicotinamide] | 115 |
| NC(=O)c1cccnc1O[C@H]1C[C@@]2(C[C@H](Nc3nc(-c4ccccc4F)cs3)C2)C1 (stereo partly drawn) [Example 11, 2-(((2S,4s,6S)-6-((4-(2-fluorophenyl)thiazol-2-yl)amino)spiro [3.3]heptan-2-yl)oxy)nicotinamide] | 1160 |
| NC(=O)c1cccnc1O[C@H]1C[C@@]2(C[C@H](Nc3nc(-c4ccc(F)cc4)cs3)C2)C1 (stereo partly drawn) [Example 12, 2-(((2S,4s,6S)-6-((4-(4-fluorophenyl)thiazol-2-yl)amino)spiro [3.3]heptan-2-yl)oxy)nicotinamide] | 846 |
| NC(=O)c1cccnc1O[C@H]1C[C@@]2(C[C@H](Nc3nc(-c4ccccc4)cs3)C2)C1 (stereo partly drawn) [Example 13, 2-(((2S,4s,6S)-6-((4-phenylthiazol-2-yl)amino)spiro[3.3]heptan-2-yl)oxy)nicotinamide] | 96 |
| Cn1c(N[C@H]2C[C@]3(C2)C[C@H](Oc2ncccc2C(N)=O)C3)nc2c(F)cccc21 (stereo partly drawn) [Example 14, 2-(((2S,4s,6S)-6-((4-fluoro-1-methyl-1H-benzo[d]imidazol-2-yl)amino)spiro[3.3]heptan-2-yl)oxy)nicotinamide] | 320 |
| Cn1cc(-c2cccc3sc(N[C@H]4C[C@]5(C4)C[C@H](Oc4ncccc4C(N)=O)C5)nc23)cn1 (stereo partly drawn) [Example 15, 2-(((2S,4s,6S)-6-((4-(l-methyl-1H-pyrazol-4-yl)benzo[d]thiazol-2-yl)amino)spiro[3.3]heptan-2-yl)oxy)nicotinamide] | 597 |
| NC(=O)c1cccnc1O[C@H]1C[C@@]2(C[C@H](Nc3nnc(-c4ccc(OC(F)(F)F)cc4)o3)C2)C1 (stereo partly drawn) [Example 16, 2-(((2S,4s,6S)-6-((5-(4-(trifluoromethoxy)phenyl)-1,3,4-oxadiazol-2-yl)amino)spiro[3.3]heptan-2-yl)oxy)nicotinamide] | 96 |
| NC(=O)c1cccnc1O[C@H]1C[C@@]2(C[C@H](Nc3nnc(-c4ccc(F)cc4)o3)C2)C1 (stereo partly drawn) [Example 17, 2-(((2S,4s,6S)-6-((5-(4-fluorophenyl)-1,3,4-oxadiazol-2-yl)amino)spiro[3.3]heptan-2-yl)oxy)nicotinamide] | 70 |
| NC(=O)c1cccnc1O[C@H]1C[C@@]2(C[C@H](Nc3nnc(-c4ccc(F)c(F)c4)o3)C2)C1 (stereo partly drawn) [Example 18, 2-(((2S,4s,6S)-6-((5-(3,4-difluorophenyl)-1,3,4-oxadiazol-2-yl)amino)spiro[3.3]heptan-2-yl)oxy)nicotinainide] | 326 |
| NC(=O)c1cccnc1O[C@H]1C[C@@]2(C[C@H](Nc3nnc(-c4ccc(F)c(F)c4F)o3)C2)C1 (stereo partly drawn) [Example 19, 2-(((2S,4s,6S)-6-((5-(2,3,4-trifluorophenyl)-1,3,4-oxadiazol-2-yl)amino)spiro[3.3]heptan-2-yl)oxy)nicotinamide] | 287 |
